The text below walks through data of patent US9266872B2, “2-hydroxyarylamide derivative or pharmaceutically acceptable salt thereof, preparation method thereof, and pharmaceutical composition for preventing or treating cancer containing same as active ingredient” (KOREA RESEARCH INSTITUTE OF BIOSCIENCE AND BIOTECHNOLOGY, priority 2011, dated 2016).

What is called inhibition is how much of the control response was suppressed.

Where two headings read alike, the source gives them in different places.

The test system of experiment [1] is TMPRSS4 over-expressing colorectal cancer cell line SW480. Description: Inhibitory effect on infiltration of cancer cells over-expressing TMPRSS4 (matrigel trans-well). The format is cell-based. The following applies: Homo sapiens, read-out: Inhibition rate of target-expressing colorectal cancer cell activity (%, 0.1~2 uM). The method, then:
The cells were distributed in a 6-well plate at the density of 3×10^5 cells/well, followed by transfection. 48 hours later, the medium was replaced with a selection medium (800 μg/ml G418 medium). G418-resistant clone was separated, followed by culture for 2 weeks, during which selection was performed.
The cancer cell line constructed in step 1 was distributed in a 24-well trans-well plate (8 μm pore size; Costar, USA) whose porous membrane was coated with 100 μl of matrigel (BD Biosciences, USA) diluted with serum-free medium at the concentration of 250 μg/ml, which stood at room temperature for 1 hour for solidification. Lower chamber of the trans-well plate was coated with 100 μl of collagen type I (Sigma) at the concentration of 20 μg/ml. […] While culturing the cells in a 37, 5% CO2 incubator for 48 hours, cell migration from the upper chamber to lower chamber was allowed. […] The excessive crystal violet solution was washed away with distilled water. The migrated cell number was counted from 5 randomly selected areas (×200). The experiment was repeated at least twice under the same condition, and the representative result was presented.
The inhibitory effect of each compound on the infiltration of TMPRSS4 over-expressing colorectal cancer cell line SW480 was calculated by Mathematical Formula 1, which presents the number of infiltrated cells with % by the number of infiltrated cells in the negative control treated with DMSO. Infiltration Inhibition Rate (%)=100−Infiltrated cell number with the treatment of each compound/Infiltrated cell number with the treatment of DMSO×100 [Mathematical Formula 1]

Another experiment has as its target T1, TMPRSS4 serine protease (Homo sapiens, UniProt Q9NRS4).
T1 construct: TMPRSS4 serine protease domain (205th Val˜437th Leu) was cloned in pET21b/NdeI-XhoI; inferred from pET21b XhoI cloning and Ni-NTA purification) (C); made in house; host or cells: E. coli BL21 (DE3)
The experiment in a line: Inhibitory effect on TMPRSS4 serine protease activity using peptide substrate. The format is biochemical. The following applies: kallikrein peptide substrate 100 μM, DMSO negative control; for Intracellular protease activity Inhibition % 10 uM / inhibition at 10 µM: 10 uM compound; for inhibition at 10 µM: read-out: Intracellular protease activity Inhibition % 10 uM; for inhibition at 30 µM / Intracellular protease activity Inhibition % 30 uM: 30 uM compound; for inhibition at 30 µM: read-out: Intracellular protease activity Inhibition % 30 uM; for inhibition at 100 µM: 100 uM compound, read-out: Intracellular protease activity Inhibition % 100 uM. The method, then:
TMPRSS4 serine protease domain (205th Val˜437th Leu) was cloned in pET21b/NdeI-XhoI, which was introduced in E. coli BL21 (DE3). At this time, FlagX2-enterokinase cleavage site ([…]; total 15 amino acids) was inserted in N-terminal of TMPRSS4 serine protease domain as shown in FIG. 1. The forward and reverse primers for PCR used for the cloning were presented by SEQ. ID. NO: 1 and NO: 2.
The cells were cultured in 10 ml of LB containing ampicillin at 37° C. overnight. IL of LB+ampicillin was added thereto, followed by further culture until OD reached 0.6˜0.8. 0.1 mM IPTG was added thereto, followed by further culture for 16 hours. Cell pellet was obtained, purified by Ni-NTA (Qiagen), and dialyzed. TMPRSS4 serine protease (pro-form) labeled with 2 mg of 2Xflag-enterokinase cleavage site was conjugated to Ni-NTA resin (4°, overnight). Enterokinase (NEB) was treated thereto at the concentration of 0.0002%/w/w at room temperature for 5 hours. The sample was washed, eluted with 50 mM imidazole in 20 mM of sodium phosphate buffer, and then dialyzed.
The protein activity was evaluated by measuring fluorescence shown during hydrolysis of the peptide. […] Reaction was induced after adding 100 μM of the peptide substrate into reaction buffer (50 mM Tris-HCl (pH 8.0), 10 mM CaCl2, 1 μM ZnCl2). Then, fluorescence was measured at 5 minutes interval (excitation 385 nm, emission 455 nm).
Then, fluorescence (excitation 385 nm/emission 455 nm) was measured at 5 minutes interval for 150 minutes. […] Dimethylsulfoxide (DMSO) was used as the negative control.

Where [2] appears, read: 0.8 uM, SW480 over-expressing TMPRSS4, 48 hours.
[3] abbreviates: SW480 over-expressing TMPRSS4, 48 hours.
Where [4] appears, read: 2 uM, SW480 over-expressing TMPRSS4, 48 hours.

T1 sequence (Q9NRS4 205-437): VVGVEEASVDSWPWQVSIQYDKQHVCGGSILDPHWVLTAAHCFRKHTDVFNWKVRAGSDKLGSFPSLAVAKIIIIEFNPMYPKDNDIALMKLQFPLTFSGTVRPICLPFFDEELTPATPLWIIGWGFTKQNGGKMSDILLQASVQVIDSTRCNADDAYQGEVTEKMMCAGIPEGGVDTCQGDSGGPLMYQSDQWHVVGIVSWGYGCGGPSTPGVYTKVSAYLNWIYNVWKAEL

Consider `O=C(Nc1cc(C(F)(F)F)cc(C(F)(F)F)c1)c1cc(Cl)ccc1O` [Example 1, N-(3,5-bis(trifluoromethyl)phenyl)-5-chloro-2-hydroxybenzamide], for which, in experiment [1] (SW480, 48 h), the inhibition at 0.8 µM was determined as 76%. At TMPRSS4 serine protease, the “Intracellular protease activity Inhibition % 10 uM” value came to 64%, the inhibition at 10 µM is 51 to 100%, the inhibition at 30 µM came out at 96% and the inhibition at 100 µM amounted to 100%.

As for `COc1cc(NC(=O)c2cc(Cl)ccc2O)cc(C(F)(F)F)c1` [Example 6, 5-chloro-2-hydroxy-N-(3-methoxy-5-(trifluoromethyl)phenyl)benzamide], the inhibition at 0.8 µM in experiment [1] (setting [2]) stood at 49%. On TMPRSS4 serine protease, the “Intracellular protease activity Inhibition % 10 uM” value amounted to 67%, the inhibition at 10 µM was in the range of 51 to 100%, the inhibition at 30 µM is 88% and the inhibition at 100 µM came to 99%.

For `O=C(Nc1cc(C(F)(F)F)cc(C(F)(F)F)c1)c1cc2ccccc2cc1O` [Example 8, N-(3,5-bis(trifluoromethyl)phenyl)-2-hydroxy-3-naphthaamide], in experiment [1] (setting [2]), the inhibition at 0.8 µM came to 72%. Further, on TMPRSS4 serine protease, the “Intracellular protease activity Inhibition % 10 uM” value came out at 58%, the inhibition at 10 µM is 51 to 100% and the inhibition at 30 µM was found to be 96%.

As for `N#Cc1ccc(NC(=O)c2cc(Cl)ccc2O)cc1C(F)(F)F` [Example 19, 5-chloro-N-(4-cyano-3-(trifluoromethyl)phenyl)-2-hydroxybenzamide], in experiment [1] (SW480, 48 h), the inhibition at 2 µM was 81%. For the same molecule, at TMPRSS4 serine protease, the inhibition at 30 µM came out at 88% and the inhibition at 100 µM is 100%.

`O=C(Nc1cc(Br)cc(C(F)(F)F)c1)c1cc(Cl)ccc1O` [Example 22, N-(3-bromo-5-(trifluoromethyl)phenyl)-5-chloro-2-hydroxybenzamide]: the inhibition at 0.1 µM in experiment [1] (setting [3]) is 43%. Further, on TMPRSS4 serine protease, the “Intracellular protease activity Inhibition % 10 uM” value was 64%, the inhibition at 10 µM lay within 51 to 100%, the inhibition at 30 µM amounted to 100% and the inhibition at 100 µM came to 100%.

On to `O=C(Nc1cnc2ccccc2c1)c1cc(Cl)ccc1O` [Example 25, 5-chloro-2-hydroxy-N-quinoline-3-yl-benzamide], for which, in experiment [1] (25 uM, SW480 over-expressing TMPRSS4, 48 hours), the inhibition at 25 µM is 51%. Also, on TMPRSS4 serine protease, the inhibition at 30 µM came to 8% and the inhibition at 100 µM is 75%.

Consider `N#Cc1ccc(NC(=O)c2cc(Cl)ccc2O)c(Cl)c1` [Example 27, 5-chloro-N-(2-chloro-4-cyano-phenyl)-2-hydroxy-benzamide], for which the inhibition at 2 µM in experiment [1] (setting [4]) is 54%. Also, on TMPRSS4 serine protease, the inhibition at 30 µM came to 92% and the inhibition at 100 µM is 100%.

Turning to `O=C(Nc1nnc(C(F)(F)F)s1)c1cc(Cl)ccc1O` [Example 28, 5-chloro-2-hydroxy-N-(5-trifluoromethyl-[1,3,4]thiadiazole-2-yl)-benzamide], in experiment [1] (setting [4]), the inhibition at 2 µM is 52%. Moreover, on TMPRSS4 serine protease, the inhibition at 30 µM was found to be 75% and the inhibition at 100 µM was found to be 100%.

`O=C(Nc1ccc(Cl)c(C(F)(F)F)c1)c1cc(Cl)ccc1O` [Example 32, 5-chloro-N-(4-chloro-3-(trifluoromethyl)phenyl)-2-hydroxybenzamide]: in experiment [1] (setting [2]), the inhibition at 0.8 µM worked out at 68%. Further, at TMPRSS4 serine protease, the “Intracellular protease activity Inhibition % 10 uM” value was found to be 71%, the inhibition at 10 µM lay within 51 to 100%, the inhibition at 30 µM is 95% and the inhibition at 100 µM came to 99%.

As for `Cc1c(C(F)(F)F)cc(NC(=O)c2cc(Cl)ccc2O)cc1C(F)(F)F` [Example 33, 5-chloro-2-hydroxy-N-(4-methyl-3,5-bis(trifluoromethyl)phenyl)benzamide], in experiment [1] (setting [3]), the inhibition at 0.1 µM was 43%. For the same molecule, at TMPRSS4 serine protease, the “Intracellular protease activity Inhibition % 10 uM” value came to 51%, the inhibition at 10 µM lay within 51 to 100% and the inhibition at 30 µM was found to be 94%.

As for `O=C(Nc1ccc(C(F)(F)F)cc1[N+](=O)[O-])c1cc(Cl)ccc1O` [Example 36, 5-chloro-2-hydroxy-N-(2-nitro-4-trifluoromethyl-phenyl)-benzamide], the inhibition at 0.8 µM in experiment [1] (setting [2]) turned out to be 76%. Moreover, at TMPRSS4 serine protease, the “Intracellular protease activity Inhibition % 10 uM” value was 53% and the inhibition at 10 µM fell in the range of 51 to 100%.

For the molecule `N#Cc1ccc(NC(=O)c2cc(Cl)ccc2O)nc1` [Example 37, 5-chloro-N-(5-cyano-pyridine-2-yl)-2-hydroxy-benzamide], the inhibition at 5 µM in experiment [1] (5 uM, SW480 over-expressing TMPRSS4, 48 hours) is 44%. Moreover, on TMPRSS4 serine protease, the inhibition at 10 µM was 26%, the “Intracellular protease activity Inhibition % 30 uM” value came out at 63% and the inhibition at 30 µM lay in the range of 47 to 100%.

In the case of `O=C(Nc1nc(-c2ccccc2)cs1)c1cc(Cl)ccc1O` [Example 53, 5-chloro-2-hydroxy-N-(4-phenylthiazole-2-yl)benzamide], the inhibition at 0.1 µM in experiment [1] (setting [3]) turned out to be 34%. The inhibition at 1 µM in experiment [1] (1 uM, SW480 over-expressing TMPRSS4, 48 hours) was determined as 56%. On TMPRSS4 serine protease, the inhibition at 30 µM is 91% and the inhibition at 100 µM was determined as 98%.

In the case of `O=C(Nc1cc(C(F)(F)F)cc(C(F)(F)F)c1)c1cc([N+](=O)[O-])ccc1O` [Example 55, N-(3,5-bis(trifluoromethyl)phenyl)-2-hydroxy-5-nitrobenzamide], in experiment [1] (setting [3]), the inhibition at 0.1 µM worked out at 26%. Further, at TMPRSS4 serine protease, the inhibition at 10 µM is 33% and the inhibition at 30 µM stood at 78%.

For the molecule `O=C(Nc1cc(C(F)(F)F)c(Br)c(C(F)(F)F)c1)c1cc(Cl)ccc1O` [Example 65, N-(4-bromo-3,5-bis(trifluoromethyl)phenyl)-5-chloro-2-hydroxybenzamide], the inhibition at 0.1 µM in experiment [1] (setting [3]) came out at 53%. At TMPRSS4 serine protease, the “Intracellular protease activity Inhibition % 10 uM” value stood at 58%, the inhibition at 10 µM was 51 to 100% and the “Intracellular protease activity Inhibition % 30 uM” value came to 85%.
